Results: publication PMC4500996, “Ortho-methylated 3-hydroxypyridines hinder hen egg-white lysozyme fibrillogenesis” (Scientific Reports, 2015)

Molecular target: T1, hen egg-white lysozyme (HEWL) (Gallus gallus, UniProt P00698)
T1 construct: gene LYZ
Assay: intrinsic Trp fluorescence quenching titration ([…] nm), two-site fit in DynaFit
Type: binding
Conditions: pH 2.0, 37 °C, 2 mM sodium chloroacetate, 10 µM HEWL; stronger of two independent sites; cationic ligand

T1 sequence (P00698 19-147): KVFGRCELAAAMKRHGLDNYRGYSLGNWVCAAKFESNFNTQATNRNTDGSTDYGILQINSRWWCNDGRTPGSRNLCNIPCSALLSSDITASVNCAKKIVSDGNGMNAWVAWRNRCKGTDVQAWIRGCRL

| Ka (M^-1).10^-3( ^a) | Structure (SMILES) |
| --- | --- |
| (9.3 ± 0.2)·10^3 | Cc1ncccc1O [2 m-3HP, 3-hydroxy-2-methylpyridine] |
| (8.9 ± 0.2)·10^3 | Cc1ccc(O)c(C)n1 [2,6dm-3HP, 3-hydroxy-2,6-dimethylpyridine] |
| (7.4 ± 0.1)·10^3 | Cc1ccc(O)cn1 [6 m-3HP, 3-hydroxy-6-methylpyridine] |
